{"source": "ChEMBL document CHEMBL5104167", "about": "“Development and profiling of mGlu7 NAMs with a range of saturable inhibition of agonist responses in vitro” (Bioorg Med Chem Lett, 2022)"}
{"molecular_target": "T1, Metabotropic glutamate receptor 7 (Homo sapiens, UniProt Q14831)", "T1 sequence (Q14831 whole entry)": "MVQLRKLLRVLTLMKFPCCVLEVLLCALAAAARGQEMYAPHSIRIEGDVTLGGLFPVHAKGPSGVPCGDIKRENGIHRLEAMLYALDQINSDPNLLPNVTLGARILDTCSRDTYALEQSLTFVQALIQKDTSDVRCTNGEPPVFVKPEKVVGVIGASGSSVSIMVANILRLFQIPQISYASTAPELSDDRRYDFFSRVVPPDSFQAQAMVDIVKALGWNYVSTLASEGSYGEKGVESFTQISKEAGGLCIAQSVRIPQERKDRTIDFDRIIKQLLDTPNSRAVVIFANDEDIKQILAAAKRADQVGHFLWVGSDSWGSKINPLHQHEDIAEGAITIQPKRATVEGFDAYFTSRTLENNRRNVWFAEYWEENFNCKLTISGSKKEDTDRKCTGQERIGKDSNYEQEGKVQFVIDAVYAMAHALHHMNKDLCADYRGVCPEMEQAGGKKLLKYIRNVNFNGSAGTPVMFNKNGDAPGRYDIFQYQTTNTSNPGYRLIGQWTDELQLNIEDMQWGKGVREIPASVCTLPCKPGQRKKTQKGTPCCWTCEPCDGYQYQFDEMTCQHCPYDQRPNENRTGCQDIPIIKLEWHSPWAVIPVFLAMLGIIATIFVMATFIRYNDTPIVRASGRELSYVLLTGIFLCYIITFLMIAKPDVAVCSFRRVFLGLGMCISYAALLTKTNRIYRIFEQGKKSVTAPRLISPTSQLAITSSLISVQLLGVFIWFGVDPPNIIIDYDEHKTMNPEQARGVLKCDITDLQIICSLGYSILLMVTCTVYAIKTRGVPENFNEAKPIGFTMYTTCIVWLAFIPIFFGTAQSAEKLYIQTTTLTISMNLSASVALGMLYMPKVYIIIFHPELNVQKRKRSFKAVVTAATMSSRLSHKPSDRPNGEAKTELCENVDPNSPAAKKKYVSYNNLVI", "conditions": "not given", "units": {"IC50": "nM"}}
{"smiles": "COc1ccc(-c2nnc(-c3cc(OC(F)(F)F)ccc3-n3cncn3)o2)cc1OC", "IC50": 1300}
{"smiles": "COc1ccc(-c2nnc(-c3cc(OC(F)(F)F)ccc3-n3ccnc3)o2)cc1OC", "IC50": 3000}
{"smiles": "COc1ccc(-c2nnc(-c3cc(OC(F)(F)F)ccc3-c3cn[nH]c3)o2)cc1OC", "IC50": 5400}
{"smiles": "CCOC(=O)c1cnc2c(OC)cccc2c1-c1ccc(-c2cc(F)cnc2OC)nc1", "IC50": 4570}
{"smiles": "COc1cc(C(=O)Nc2cc(OC(F)(F)F)ccc2-n2cncn2)ccc1OC1CCC1", "IC50": 3100}
{"smiles": "COc1cc(OCC(=O)Nc2cc(OC(F)(F)F)ccc2-n2cncn2)ccc1OC1COC1", "IC50": 819}
{"molecular_target": "T1, Metabotropic glutamate receptor 7", "conditions": "not given", "remark": "another data set of the same source", "units": {"Emin": "%"}}
{"smiles": "COc1ccc(-c2nnc(-c3cc(OC(F)(F)F)ccc3-n3ccnc3)o2)cc1OC", "Emin": 0}
{"smiles": "COc1ccc(-c2nnc(-c3cc(OC(F)(F)F)ccc3-c3cn[nH]c3)o2)cc1OC", "Emin": 26}
{"smiles": "CCOC(=O)c1cnc2c(OC)cccc2c1-c1ccc(-c2cc(F)cnc2OC)nc1", "Emin": 22.4}
{"smiles": "COc1cc(C(=O)Nc2cc(OC(F)(F)F)ccc2-n2cncn2)ccc1OC1CCC1", "Emin": 19}
{"smiles": "COc1cc(OCC(=O)Nc2cc(OC(F)(F)F)ccc2-n2cncn2)ccc1OC1COC1", "Emin": 21.1}
{"molecular_target": "T1, Metabotropic glutamate receptor 7", "conditions": "filed as negative allosteric modulator", "units": {"Emin": "%"}}
{"smiles": "COc1ccc(-c2nnc(-c3cc(OC(F)(F)F)ccc3-n3cncn3)o2)cc1OC", "Emin": 60}
{"smiles": "COc1ccc(-c2coc(-c3cc(OC(F)(F)F)ccc3-n3cncn3)n2)cc1OC", "Emin": 45}
{"smiles": "COc1ccc(-c2noc(-c3cc(Cl)cc(F)c3-n3cncn3)n2)c(F)c1OC", "Emin": 69}
{"smiles": "COc1ccc(-c2noc(-c3cc(Cl)c(F)cc3-n3cncn3)n2)cc1OC", "Emin": 74}
{"smiles": "COc1ccc(-c2noc(-c3cc(Cl)ccc3-n3cncn3)n2)c(F)c1OC", "Emin": 59}
{"tested_on": "not listed separately", "experiment": "Ratio of drug level in brain to plasma in rat", "format": "ADME, cell-free", "conditions": "not given"}
{"smiles": "COc1ccc(-c2nnc(-c3cc(OC(F)(F)F)ccc3-n3ccnc3)o2)cc1OC", "Kp": 4.9}
{"smiles": "COc1cc(C(=O)Nc2cc(OC(F)(F)F)ccc2-n2cncn2)ccc1OCC1CC1", "Kp": 2.4}
{"tested_on": "not listed separately", "experiment": "Plasma protein binding in rat assessed as unbound fraction", "format": "ADME, cell-free", "conditions": "not given", "units": {"Fu": "%"}}
{"smiles": "COc1ccc(-c2nnc(-c3cc(Cl)ccc3-c3ccnn3C)o2)cc1OC", "Fu": 3.9}
{"tested_on": "not listed separately", "experiment": "Drug concentration in rat brain assessed as unbound fraction", "format": "ADME, tissue-based", "conditions": "not given"}
{"smiles": "COc1ccc(-c2nnc(-c3cc(Cl)ccc3-c3ccnn3C)o2)cc1OC", "fraction unbound": 0.009}
{"molecular_target": "Metabotropic glutamate receptor 7 (Rattus norvegicus, UniProt P35400)", "sequence (P35400 whole entry)": "as the sequence (Q14831 whole entry) above, with R5G, A27V, N454H, S488T, A520S, D578N counted along it", "experiment": "Negative allosteric modulation of rat mGlu7 in HEK cells expressing Galpha15 assessed as inhibition of L-AP4-induced response measured by calcium mobilization assay", "format": "functional, cell-based", "conditions": "not given", "units": {"IC50": "nM"}}
{"smiles": "COc1ccc(-c2nnc(-c3cc(OC(F)(F)F)ccc3-n3cncn3)o2)cc1OC", "IC50": 2000}
{"smiles": "COc1ccc(-c2coc(-c3cc(OC(F)(F)F)ccc3-n3cncn3)n2)cc1OC", "IC50": "> 10000"}
{"smiles": "COc1ccc(-c2noc(-c3cc(Cl)cc(F)c3-n3cncn3)n2)c(F)c1OC", "IC50": 1000}
{"smiles": "COc1ccc(-c2nnc(-c3cc(OC(F)(F)F)ccc3-c3cn[nH]c3)o2)cc1OC", "IC50": 2000}
{"smiles": "COc1ccc(-c2noc(-c3cc(Cl)c(F)cc3-n3cncn3)n2)cc1OC", "IC50": "> 30000"}
{"smiles": "CCOC(=O)c1cnc2c(OC)cccc2c1-c1ccc(-c2cc(F)cnc2OC)nc1", "IC50": 2400}
{"smiles": "COc1cc(C(=O)Nc2cc(OC(F)(F)F)ccc2-n2cncn2)ccc1OC1CCC1", "IC50": 1000}
{"smiles": "COc1ccc(-c2noc(-c3cc(Cl)ccc3-n3cncn3)n2)c(F)c1OC", "IC50": "> 30000"}
{"smiles": "COc1cc(OCC(=O)Nc2cc(OC(F)(F)F)ccc2-n2cncn2)ccc1OC1COC1", "IC50": 263}
